{"source": "patent US20210198256A1", "about": "“COMPOUNDS FOR THE DEGRADATION OF BRD9 OR MTH1” (C4 Therapeutics, Inc., priority 2018, published 2021)"}
{"tested_on": "SMARTCAR-MTH1-wt-HiBiT (Jurkat.7 cells)", "experiment": "HiBit Lytic Assay (HiBit DC50, MTH1 degraders of Table 2)", "format": "cell-based, human", "settings": "Jurkat.7 SMARTCAR-MTH1-wt-HiBiT cells, compound treatment time 4 hr, 11-point half log dose response", "method": "Example 3. HiBit Lytic Assay\n• Compound is made at 10 mM, half log dilution, 11 points. • MDR plates can also be ordered from Frontier with same format. • 1. Barcode a 384LDV plate (384-well Low Dead Volume Microplate, Labcyte LP-0200) (Echo compatible) on the left side. • 2. Transfer 13.6 μL of 10 mM compound into column 1 of LDV plate (Labcyte). • 3. Fill column 2-11 and column 23 of MDR plate with 9.30 μL of DMSO. • 4. Serial dilute 3.16 fold from column 1 to 2 by transferring 4.30 μL from column 1 to column 2, and so on to column 11. *Change tip in every dilution to prevent compound carryover effect! • 5. Seal the plate with Plate Sealer, then store the MDR plate at room temperature for short term storage and in −20° C. for long term storage.\n• Cells are treated with 30 nL of each compound at 10 mM, half log dilution, 11 points with final concentration of 1000 nM or 833 nM, half log dilution, 11 points, in duplicates. Final DMSO concentration is 0.1%. • 1. Barcode the plates made on the left side and label the plates with silver marker. • 2. Dispense with the following scheme: • a. 30 nL of compound into corresponding wells in cell plates via Echo550 with “MDR32_HiBiT16_30 nL”. Top concentration will be 1000 nM. • 3. Seal the plate with Plate Sealer.\n• Cells are dispensed at density specified in Cell Line Table in 384-well microplate. • 1. Culture cells to between 50-80% of confluence in sterile culture flasks of appropriate size. • 2. For Adherent Cell Lines: • a. Aspirate off growth media in culture flask, and wash off the Phenol Red media with 5 mL of 1×PBS. • b. Add 5 mL of Trypsin to the cells, incubate at 37° C. for 5 minutes. • c. Add 5 mL of growth media to the trypsinzed cells, and resuspend. • 3. Remove 10 μL of cells, and resuspend the cells with 10 μL of Trypan Blue. Insert the solution to counting chamber slide, and count the cells via cell counter. • 4. Adjust the cell concentration to specified plating density, and strain the cells with cell strainer. • 5. Dispense the cells via E1-ClipTip™ Electronic Multichannel Pipettes or Multidrop™ Combi Reagent Dispenser with Standard tube dispensing cassette: • a. Prime the cassette with 10-20 mL of ddH2O. • b. Prime the cassette with 10-20 mL of cells. • c. Dispense the cells at low speed for 30 μL/well in Corning® 384 Well Low Flange Black Flat Bottom Polystyrene TC-Treated Microplate. • d. Wash the cassette with 10-20 mL of ddH2O, follow by 10-20 mL of 70% EtOH, then again with 10-20 mL of ddH2O. • 6. Incubate the plates at 37° C.×compound treatment time.\n• 1. If not already, bring Nano-Glo® HiBiT Lytic Buffer to room temperature. • 2. Determine the amount of reagent needed. A volume of reagent equal to the volume of media in the well should be added (i.e. 30 μL of cells will need 30 μL of HiBiT Lytic reagent). • 3. Into a given volume of buffer, dilute the substrate 50-fold and the LgBiT protein 100-fold. For example, to make 10 ml of reagent, add the following: • 10 ml Nano-Glo® HiBiT Lytic Buffer • 200 μl Nano-Glo® HiBiT Lytic Substrate • 100 μl LgBiT Protein • The reagent should be reconstituted immediately before use. However, once reconstituted, it should take about 4 hours for the activity to decrease 10%. • 4. Cool down the cell plate to room temperature for 10-15 minutes without lid. • 5. Dispense the HiBiT Lytic Reagent via E1-ClipTip™ Electronic Multichannel Pipettes or Multidrop™ Combi Reagent Dispenser with Standard tube dispensing cassette: • a. Prime the cassette with 10-20 mL of ddH2O. • b. Prime the cassette with 10-20 mL of CTG 2.0. • c. Dispense the HiBiT Lytic Reagent at medium speed for 30 μL/well in cell plate to column 1-23 (column 24 will be used as plate background). • d. Wash the cassette with 10-20 mL of ddH2O, follow by 10-20 mL of 70% EtOH, then again with 10-20 mL of ddH2O. • 6. Incubate the cell plate at room temperature for 10 minutes without lid. • 7. […]", "units": {"DC50": "nM"}}
{"smiles": "NC(=O)c1cnc2ccc(-c3ccc(C(=O)N[C@H]4CC[C@@H](NC(=O)CNC(=O)COc5cccc6c5C(=O)N(C5CCC(=O)NC5=O)C6=O)CC4)cc3)cc2c1Nc1ccccc1", "note": "(stereo partly shown) [Compound 308, 6-(4-(((1s,4s)-4-(2-(2-((2-(2,6-dioxopiperidin-3-yl)-1,3-dioxoisoindolin-4-yl)oxy)acetamido)acetamido)cyclohexyl)carbamoyl)phenyl)-4-(phenylamino)quinoline-3-carboxamide]", "DC50": "< 100"}
{"smiles": "CNC(=O)c1cnc2ccc(-c3ccc(C(=O)NCCCCNC(=O)C(C)Nc4cccc5c4C(=O)N(C4CCC(=O)NC4=O)C5=O)cc3)cc2c1Nc1ccccc1", "note": "(stereo not shown) [Compound 346, 4-anilino-6-[4-[4-[2-[[2-(2,6-dioxo-3-piperidyl)-1,3-dioxo-isoindolin-4-yl]amino]propanoylamino]butylcarbamoyl]phenyl]-N-methyl-quinoline-3-carboxamide]", "DC50": "< 100"}
{"smiles": "COc1cc2ncc(C(=O)NC3CC3)c(N)c2cc1-c1ccc(C(=O)NCCCCn2cc(CNc3cccc4c3C(=O)N(C3CCC(=O)NC3=O)C4=O)nn2)nc1", "note": "(stereo not shown) [Compound 398, 4-amino-N-cyclopropyl-6-[6-[4-[4-[[[2-(2,6-dioxo-3-piperidyl)-1,3-dioxo-isoindolin-4-yl]amino]methyl]triazol-1-yl]butylcarbamoyl]-3-pyridyl]-7-methoxy-quinoline-3-carboxamide]", "DC50": "< 100"}
{"smiles": "NC(=O)c1cnc2ccc(NCCCCCCCCCCNC(=O)COc3cccc4c3C(=O)N(C3CCC(=O)NC3=O)C4=O)cc2c1Nc1ccccc1", "note": "(stereo not shown) [Compound 465, 6-((10-(2-((2-(2,6-dioxopiperidin-3-yl)-1,3-dioxoisoindolin-4-yl)oxy)acetamido)decyl)amino)-4-(phenylamino)quinoline-3-carboxamide]", "DC50": "< 100"}
{"smiles": "CNC(=O)c1cnc2ccc(-c3ccc(C(=O)NCCCCNC(=O)CN(C)c4cccc5c4C(=O)N(C4CCC(=O)NC4=O)C5=O)cc3)cc2c1Nc1ccccc1", "note": "(stereo not shown) [Compound 471, 6-(4-((4-(2-((2-(2,6-dioxopiperidin-3-yl)-1,3-dioxoisoindolin-4-yl)(methyl)amino)acetamido)butyl)carbamoyl)phenyl)-N-methyl-4-(phenylamino)quinoline-3-carboxamide]", "DC50": "< 100"}
{"smiles": "CC(C)NC(=O)c1cnc2ccc(NCCCCCCCCCCNC(=O)COc3cccc4c3C(=O)N(C3CCC(=O)NC3=O)C4=O)cc2c1Nc1ccccc1", "note": "(stereo not shown) [Compound 457, 6-((10-(2-((2-(2,6-dioxopiperidin-3-yl)-1,3-dioxoisoindolin-4-yl)oxy)acetamido)decyl)amino)-N-isopropyl-4-(phenylamino)quinoline-3-carboxamide]", "DC50": "< 100"}
{"smiles": "NC(=O)c1cnc2ccc(-c3ccc(C(=O)NCCCCNC(=O)CNc4cccc5c4C(=O)N(C4CCC(=O)NC4=O)C5=O)cc3)cc2c1Nc1ccccc1", "note": "(stereo not shown) [Compound 302, 6-(4-((4-(2-((2-(2,6-dioxopiperidin-3-yl)-1,3-dioxoisoindolin-4 yl)amino)acetamido)butyl)carbamoyl)phenyl)-4-(phenylamino)quinoline-3-carboxamide]", "DC50": "< 100"}
{"smiles": "CNC(=O)c1cnc2ccc(CNC(=O)CCCCCCCCNC(=O)COc3cccc4c3C(=O)N(C3CCC(=O)NC3=O)C4=O)cc2c1Nc1ccccc1", "note": "(stereo not shown) [Compound 456, 6-((9-(2-((2-(2,6-dioxopiperidin-3-yl)-1,3-dioxoisoindolin-4-yl)oxy)acetamido)nonanamido)methyl)-N-methyl-4-(phenylamino)quinoline-3-carboxamide]", "DC50": "< 100"}
{"smiles": "CNC(=O)c1cnc2ccc(-c3ccc(C(=O)NCCCNC(=O)C(C)Nc4cccc5c4C(=O)N(C4CCC(=O)NC4=O)C5=O)cc3)cc2c1Nc1ccccc1", "note": "(stereo not shown) [Compound 363, 4-anilino-6-[4-[3-[2-[[2-(2,6-dioxo-3-piperidyl)-1,3-dioxo-isoindolin-4-yl]amino]propanoylamino]propylcarbamoyl]phenyl]-N-methyl-quinoline-3-carboxamide]", "DC50": "< 100"}
{"smiles": "CNC(=O)c1cnc2ccc(NCCCCCCCCCCNC(=O)CNc3cccc4c3CN(C3CCC(=O)NC3=O)C4=O)cc2c1Nc1ccccc1", "note": "(stereo not shown) [Compound 441, 6-((10-(2-((2-(2,6-dioxopiperidin-3-yl)-1-oxoisoindolin-4-yl)amino)acetamido)decyl)amino)-N-methyl-4-(phenylamino)quinoline-3-carboxamide]", "DC50": "< 100"}
{"smiles": "CNc1c(C(=O)NC2CC2)cnc2cc(C(F)(F)F)c(-c3ccc(C(=O)NCCCCn4cc(C(C)Nc5cccc6c5C(=O)N(C5CCC(=O)NC5=O)C6=O)nn4)nc3)cc12", "note": "(stereo not shown) [Compound 431, N-cyclopropyl-6-(6-((4-(4-(1-((2-(2,6-dioxopiperidin-3-yl)-1,3-dioxoisoindolin-4-yl)amino)ethyl)-1H-1,2,3-triazol-1-yl)butyl)carbamoyl)pyridin-3-yl)-4-(methylamino)-7-(trifluoromethyl)quinoline-3-carboxamide]", "DC50": "< 1000"}
{"smiles": "CNC(=O)c1cnc2ccc(-c3cnn(CCCCCCNC(=O)COc4cccc5c4C(=O)N(C4CCC(=O)NC4=O)C5=O)c3)cc2c1Nc1ccccc1", "note": "(stereo not shown) [Compound 360, 4-anilino-6-[1-[6-[[2-[2-(2,6-dioxo-3-piperidyl)-1,3-dioxo-isoindolin-4-yl]oxyacetyl]amino]hexyl]pyrazol-4-yl]-N-methyl-quinoline-3-carboxamide]", "DC50": "< 100"}
{"smiles": "CNC(=O)c1cnc2ccc(-c3ccc(C(=O)NCCCCNC(=O)CNc4cccc5c4C(=O)N(C4CCC(=O)NC4=O)C5=O)c(C)c3)cc2c1Nc1ccccc1", "note": "(stereo not shown) [Compound 353, 4-anilino-6-[4-[4-[[2-[[2-(2,6-dioxo-3-piperidyl)-1,3-dioxo-isoindolin-4-yl]amino]acetyl]amino]butylcarbamoyl]-3-methyl-phenyl]-N-methyl-quinoline-3-carboxamide]", "DC50": "< 100"}
{"smiles": "NC(=O)c1cnc2ccc(-c3ccc(C(=O)NCCCCNC(=O)CNc4cccc5c4CN(C4CCC(=O)NC4=O)C5=O)cc3)cc2c1Nc1ccccc1", "note": "(stereo not shown) [Compound 303, 4-anilino-6-[4-[4-[[2-[[2-(2,6-dioxo-3-piperidyl)-1-oxo-isoindolin-4-yl]amino]acetyl]amino]butylcarbamoyl]phenyl]quinoline-3-carboxamide]", "DC50": "< 100"}
{"smiles": "CNC(=O)c1cnc2cc(C(F)(F)F)c(-c3ccc(C(=O)NCCCCn4cc(CNc5cccc6c5C(=O)N(C5CCC(=O)NC5=O)C6=O)nn4)nc3)cc2c1Nc1ccccc1", "note": "(stereo not shown) [Compound 386, 6-(6-((4-(4-(((2-(2,6-dioxopiperidin-3-yl)-1,3-dioxoisoindolin-4-yl)amino)methyl)-1H-1,2,3-triazol-1-yl)butyl)carbamoyl)pyridin-3-yl)-N-methyl-4-(phenylamino)-7-(trifluoromethyl)quinoline-3-carboxamide]", "DC50": "< 100"}
{"smiles": "CNc1c(C(=O)NC2CC2)cnc2cc(F)c(-c3ccc(C(=O)NCCCCn4cc(COc5cccc6c5C(=O)N(C5CCC(=O)NC5=O)C6=O)nn4)c(F)c3)cc12", "note": "(stereo not shown) [Compound 412, N-cyclopropyl-6-[4-[4-[4-[[2-(2,6-dioxo-3-piperidyl)-1,3-dioxo-isoindolin-4-yl]oxymethyl]triazol-1-yl]butylcarbamoyl]-3-fluoro-phenyl]-7-fluoro-4-(methylamino)quinoline-3-carboxamide]", "DC50": "< 100"}
